Results published in ChEMBL document CHEMBL4507291 (2021).

Tests used:
[1] = biological target: Activin receptor type-1-like (Homo sapiens) (UniProt P37023)
[2] = biological target: Dual serine/threonine and tyrosine protein kinase (Homo sapiens) (UniProt Q6XUX3)
[3] = biological target: Serine/threonine-protein kinase SIK3 (Homo sapiens) (UniProt Q9Y2K2)
[4] = biological target: Tyrosine-protein kinase Blk (Homo sapiens) (UniProt P51451)
[5] = biological target: Cyclin-dependent kinase 17 (Homo sapiens) (UniProt Q00537)
[6] = biological target: Dual specificity tyrosine-phosphorylation-regulated kinase 2 (Homo sapiens) (UniProt Q92630)
[7] = tested on: Receptor-type tyrosine-protein kinase FLT3 (Homo sapiens), P36888 [UNDEFINED MUTATION]
Sequence of Receptor-type tyrosine-protein kinase FLT3 (Homo sapiens), P36888 [UNDEFINED MUTATION] (P36888 whole entry, looked up, change not shown): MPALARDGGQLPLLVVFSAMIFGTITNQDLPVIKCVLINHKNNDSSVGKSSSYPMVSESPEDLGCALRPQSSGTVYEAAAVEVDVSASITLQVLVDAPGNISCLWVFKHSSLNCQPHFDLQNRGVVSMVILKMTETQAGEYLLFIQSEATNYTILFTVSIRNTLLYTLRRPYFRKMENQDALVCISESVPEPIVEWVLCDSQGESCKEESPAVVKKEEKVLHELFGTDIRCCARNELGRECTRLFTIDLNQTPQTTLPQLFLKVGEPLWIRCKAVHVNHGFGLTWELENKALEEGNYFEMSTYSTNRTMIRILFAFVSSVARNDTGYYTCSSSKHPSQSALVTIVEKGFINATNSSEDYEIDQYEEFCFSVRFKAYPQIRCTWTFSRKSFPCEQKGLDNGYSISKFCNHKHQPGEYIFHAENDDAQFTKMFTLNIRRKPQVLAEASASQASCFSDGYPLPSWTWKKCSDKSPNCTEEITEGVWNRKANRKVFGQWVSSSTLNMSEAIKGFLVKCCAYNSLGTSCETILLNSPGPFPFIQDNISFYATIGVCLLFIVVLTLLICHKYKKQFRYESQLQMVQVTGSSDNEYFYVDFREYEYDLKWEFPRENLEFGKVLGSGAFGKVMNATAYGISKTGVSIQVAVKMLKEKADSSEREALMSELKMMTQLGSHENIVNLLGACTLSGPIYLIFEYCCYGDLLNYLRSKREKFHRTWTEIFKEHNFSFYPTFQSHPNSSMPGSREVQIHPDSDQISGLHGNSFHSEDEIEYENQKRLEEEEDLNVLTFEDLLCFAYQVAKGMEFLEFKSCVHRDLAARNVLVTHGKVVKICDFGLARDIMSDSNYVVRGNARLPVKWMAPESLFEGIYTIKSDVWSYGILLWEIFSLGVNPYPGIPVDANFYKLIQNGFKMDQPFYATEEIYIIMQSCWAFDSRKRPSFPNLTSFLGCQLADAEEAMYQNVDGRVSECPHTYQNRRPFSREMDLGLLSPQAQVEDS

[8] = tested on: Epidermal growth factor receptor (Homo sapiens), P00533 [UNDEFINED MUTATION]
[9] = biological target: Microtubule-associated serine/threonine-protein kinase 1 (Homo sapiens) (UniProt Q9Y2H9)
[10] = tested on: Tyrosine-protein kinase ABL1 (Homo sapiens), P00519 [H396P]
[11] = biological target: Cyclin-dependent kinase 16 (Homo sapiens) (UniProt Q00536)
[12] = biological target: Ribosomal protein S6 kinase alpha-5 (Homo sapiens) (UniProt O75582)
Sequence of Ribosomal protein S6 kinase alpha-5 (Homo sapiens) (O75582 whole entry, looked up): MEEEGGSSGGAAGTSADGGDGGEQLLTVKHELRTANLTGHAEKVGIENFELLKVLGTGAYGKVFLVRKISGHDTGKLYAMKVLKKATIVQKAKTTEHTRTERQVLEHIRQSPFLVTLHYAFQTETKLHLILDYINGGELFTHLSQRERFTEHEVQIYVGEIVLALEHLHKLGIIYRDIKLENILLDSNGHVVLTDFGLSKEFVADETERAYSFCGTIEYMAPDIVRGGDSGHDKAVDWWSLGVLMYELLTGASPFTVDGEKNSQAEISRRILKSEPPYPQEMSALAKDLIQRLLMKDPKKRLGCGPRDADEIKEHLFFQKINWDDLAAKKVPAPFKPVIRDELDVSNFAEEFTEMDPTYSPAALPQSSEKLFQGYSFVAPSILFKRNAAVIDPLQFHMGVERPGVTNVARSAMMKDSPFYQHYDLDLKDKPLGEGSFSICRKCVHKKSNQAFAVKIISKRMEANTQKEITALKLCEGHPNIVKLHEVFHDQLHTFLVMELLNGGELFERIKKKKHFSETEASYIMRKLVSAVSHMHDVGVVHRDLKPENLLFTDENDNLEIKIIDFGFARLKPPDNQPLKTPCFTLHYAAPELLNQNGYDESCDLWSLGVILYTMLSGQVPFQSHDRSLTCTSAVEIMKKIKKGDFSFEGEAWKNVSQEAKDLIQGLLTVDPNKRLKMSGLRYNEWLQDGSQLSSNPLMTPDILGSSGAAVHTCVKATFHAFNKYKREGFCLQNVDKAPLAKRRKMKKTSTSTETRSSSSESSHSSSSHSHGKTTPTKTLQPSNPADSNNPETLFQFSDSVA

[13] = biological target: T1, Cytoplasmic tyrosine-protein kinase BMX (Homo sapiens) (UniProt P51813)
T1 sequence (whole entry): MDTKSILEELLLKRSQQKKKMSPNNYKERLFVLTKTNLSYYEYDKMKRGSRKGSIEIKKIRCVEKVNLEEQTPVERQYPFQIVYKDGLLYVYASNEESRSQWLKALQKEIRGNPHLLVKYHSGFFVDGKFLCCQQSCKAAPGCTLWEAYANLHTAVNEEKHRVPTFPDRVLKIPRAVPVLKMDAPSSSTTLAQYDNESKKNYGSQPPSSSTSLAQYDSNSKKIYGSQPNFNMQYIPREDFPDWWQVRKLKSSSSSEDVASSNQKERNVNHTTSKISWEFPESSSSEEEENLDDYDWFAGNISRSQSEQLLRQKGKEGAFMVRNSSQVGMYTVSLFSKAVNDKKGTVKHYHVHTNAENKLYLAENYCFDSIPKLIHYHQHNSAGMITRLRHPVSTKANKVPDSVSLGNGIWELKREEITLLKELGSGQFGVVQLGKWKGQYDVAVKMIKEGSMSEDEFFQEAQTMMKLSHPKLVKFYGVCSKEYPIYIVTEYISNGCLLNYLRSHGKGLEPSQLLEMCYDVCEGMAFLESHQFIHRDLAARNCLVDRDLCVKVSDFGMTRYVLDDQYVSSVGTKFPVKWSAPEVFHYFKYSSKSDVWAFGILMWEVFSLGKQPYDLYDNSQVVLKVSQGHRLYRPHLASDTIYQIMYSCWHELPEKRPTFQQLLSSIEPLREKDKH

[14] = biological target: Protein-tyrosine kinase 2-beta (Homo sapiens) (UniProt Q14289)
Sequence of Protein-tyrosine kinase 2-beta (Homo sapiens) (Q14289 whole entry, looked up): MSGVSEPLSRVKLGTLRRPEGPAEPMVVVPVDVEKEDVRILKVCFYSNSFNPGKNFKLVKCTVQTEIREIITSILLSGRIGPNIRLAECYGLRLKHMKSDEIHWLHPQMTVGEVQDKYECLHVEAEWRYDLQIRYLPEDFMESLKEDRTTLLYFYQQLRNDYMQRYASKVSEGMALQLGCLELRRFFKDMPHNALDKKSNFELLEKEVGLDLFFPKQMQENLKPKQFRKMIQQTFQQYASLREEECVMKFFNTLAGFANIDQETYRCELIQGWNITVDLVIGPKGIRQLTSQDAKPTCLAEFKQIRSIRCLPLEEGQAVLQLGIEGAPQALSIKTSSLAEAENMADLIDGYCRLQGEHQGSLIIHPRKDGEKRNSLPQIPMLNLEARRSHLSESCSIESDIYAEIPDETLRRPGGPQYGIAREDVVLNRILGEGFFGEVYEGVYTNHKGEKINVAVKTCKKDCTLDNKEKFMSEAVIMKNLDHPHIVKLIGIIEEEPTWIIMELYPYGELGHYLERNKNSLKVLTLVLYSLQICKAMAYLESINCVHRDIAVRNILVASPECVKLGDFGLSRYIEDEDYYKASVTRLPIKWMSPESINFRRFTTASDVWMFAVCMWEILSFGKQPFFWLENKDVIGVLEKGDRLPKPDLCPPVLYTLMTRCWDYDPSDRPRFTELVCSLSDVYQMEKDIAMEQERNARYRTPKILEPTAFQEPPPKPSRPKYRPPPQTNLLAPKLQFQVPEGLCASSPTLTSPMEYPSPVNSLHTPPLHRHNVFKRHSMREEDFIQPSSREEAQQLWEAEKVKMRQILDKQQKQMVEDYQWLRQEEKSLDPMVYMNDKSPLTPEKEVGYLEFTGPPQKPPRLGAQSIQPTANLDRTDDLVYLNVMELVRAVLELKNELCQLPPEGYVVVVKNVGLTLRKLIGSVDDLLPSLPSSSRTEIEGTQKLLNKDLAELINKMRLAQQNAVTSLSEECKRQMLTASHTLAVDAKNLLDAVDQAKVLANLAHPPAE

[15] = tested on: Tyrosine-protein kinase ABL1 (Homo sapiens), P00519 [Q252H]
[16] = biological target: Tyrosine-protein kinase Fer (Homo sapiens) (UniProt P16591)
Sequence of Tyrosine-protein kinase Fer (Homo sapiens) (P16591 whole entry, looked up): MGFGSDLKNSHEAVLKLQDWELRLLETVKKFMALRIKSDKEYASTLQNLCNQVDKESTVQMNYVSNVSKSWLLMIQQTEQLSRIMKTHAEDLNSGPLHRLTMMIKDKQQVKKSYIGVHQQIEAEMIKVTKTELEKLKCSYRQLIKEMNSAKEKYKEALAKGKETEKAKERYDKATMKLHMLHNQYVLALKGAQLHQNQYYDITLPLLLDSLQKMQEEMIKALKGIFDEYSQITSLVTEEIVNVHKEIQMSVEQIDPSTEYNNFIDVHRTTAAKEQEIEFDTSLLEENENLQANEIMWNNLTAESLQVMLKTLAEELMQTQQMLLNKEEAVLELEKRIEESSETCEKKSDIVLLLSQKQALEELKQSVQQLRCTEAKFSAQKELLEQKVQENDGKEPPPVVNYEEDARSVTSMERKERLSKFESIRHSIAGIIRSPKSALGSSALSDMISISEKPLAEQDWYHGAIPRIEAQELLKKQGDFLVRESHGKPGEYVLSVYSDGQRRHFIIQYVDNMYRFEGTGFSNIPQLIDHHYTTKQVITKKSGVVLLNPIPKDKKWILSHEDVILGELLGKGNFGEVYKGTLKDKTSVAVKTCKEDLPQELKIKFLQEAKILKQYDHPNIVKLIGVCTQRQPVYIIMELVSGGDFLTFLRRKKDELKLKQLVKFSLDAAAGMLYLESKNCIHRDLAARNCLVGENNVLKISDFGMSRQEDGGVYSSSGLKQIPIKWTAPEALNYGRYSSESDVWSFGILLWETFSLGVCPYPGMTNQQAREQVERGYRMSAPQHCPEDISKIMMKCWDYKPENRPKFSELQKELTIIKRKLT

[17] = biological target: Serine/threonine-protein kinase 32C (Homo sapiens) (UniProt Q86UX6)
[18] = biological target: Calcium/calmodulin-dependent protein kinase type 1 (Homo sapiens) (UniProt Q14012)
Sequence of Calcium/calmodulin-dependent protein kinase type 1 (Homo sapiens) (Q14012 whole entry, looked up): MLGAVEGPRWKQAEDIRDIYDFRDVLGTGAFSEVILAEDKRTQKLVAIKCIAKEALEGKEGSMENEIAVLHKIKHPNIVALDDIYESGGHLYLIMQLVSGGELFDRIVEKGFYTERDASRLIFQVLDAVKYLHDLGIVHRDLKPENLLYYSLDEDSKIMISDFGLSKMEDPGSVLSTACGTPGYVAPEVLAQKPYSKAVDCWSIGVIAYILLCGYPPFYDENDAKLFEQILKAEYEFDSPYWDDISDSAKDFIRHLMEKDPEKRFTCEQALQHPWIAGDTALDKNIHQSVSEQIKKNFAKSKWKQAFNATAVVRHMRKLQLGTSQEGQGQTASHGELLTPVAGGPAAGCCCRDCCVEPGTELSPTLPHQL

[19] = biological target: T2, Ephrin type-B receptor 4 (Homo sapiens) (UniProt P54760)
T2 sequence (whole entry): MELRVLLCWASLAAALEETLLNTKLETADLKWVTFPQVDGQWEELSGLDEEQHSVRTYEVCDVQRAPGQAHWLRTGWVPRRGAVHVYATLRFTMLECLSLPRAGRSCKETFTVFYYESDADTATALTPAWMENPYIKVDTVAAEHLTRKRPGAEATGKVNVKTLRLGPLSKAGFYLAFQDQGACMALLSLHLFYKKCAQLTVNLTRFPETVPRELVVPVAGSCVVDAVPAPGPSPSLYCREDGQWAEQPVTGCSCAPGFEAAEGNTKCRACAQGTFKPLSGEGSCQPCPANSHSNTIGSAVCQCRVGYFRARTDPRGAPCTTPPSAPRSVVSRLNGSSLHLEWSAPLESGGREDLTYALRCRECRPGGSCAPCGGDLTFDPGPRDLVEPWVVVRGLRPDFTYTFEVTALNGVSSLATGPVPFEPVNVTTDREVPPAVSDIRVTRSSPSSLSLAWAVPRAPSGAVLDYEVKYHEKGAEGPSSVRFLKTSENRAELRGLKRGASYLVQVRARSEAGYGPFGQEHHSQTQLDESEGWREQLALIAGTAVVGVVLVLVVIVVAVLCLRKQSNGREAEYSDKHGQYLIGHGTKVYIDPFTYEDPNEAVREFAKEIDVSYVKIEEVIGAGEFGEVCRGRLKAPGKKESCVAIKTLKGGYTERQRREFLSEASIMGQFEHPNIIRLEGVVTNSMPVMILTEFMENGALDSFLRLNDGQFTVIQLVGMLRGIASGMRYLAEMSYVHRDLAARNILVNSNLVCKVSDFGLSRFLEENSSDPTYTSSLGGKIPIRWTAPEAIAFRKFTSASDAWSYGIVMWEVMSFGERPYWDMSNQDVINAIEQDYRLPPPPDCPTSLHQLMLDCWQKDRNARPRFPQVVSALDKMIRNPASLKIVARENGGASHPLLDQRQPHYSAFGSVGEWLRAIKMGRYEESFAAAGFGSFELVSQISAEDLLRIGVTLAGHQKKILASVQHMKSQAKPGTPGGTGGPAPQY

[20] = Compound concentration 1000.0 nM
[21] = Compound concentration 100.0 nM

Measured: residual activity

Sequence of Activin receptor type-1-like (Homo sapiens) (P37023 whole entry): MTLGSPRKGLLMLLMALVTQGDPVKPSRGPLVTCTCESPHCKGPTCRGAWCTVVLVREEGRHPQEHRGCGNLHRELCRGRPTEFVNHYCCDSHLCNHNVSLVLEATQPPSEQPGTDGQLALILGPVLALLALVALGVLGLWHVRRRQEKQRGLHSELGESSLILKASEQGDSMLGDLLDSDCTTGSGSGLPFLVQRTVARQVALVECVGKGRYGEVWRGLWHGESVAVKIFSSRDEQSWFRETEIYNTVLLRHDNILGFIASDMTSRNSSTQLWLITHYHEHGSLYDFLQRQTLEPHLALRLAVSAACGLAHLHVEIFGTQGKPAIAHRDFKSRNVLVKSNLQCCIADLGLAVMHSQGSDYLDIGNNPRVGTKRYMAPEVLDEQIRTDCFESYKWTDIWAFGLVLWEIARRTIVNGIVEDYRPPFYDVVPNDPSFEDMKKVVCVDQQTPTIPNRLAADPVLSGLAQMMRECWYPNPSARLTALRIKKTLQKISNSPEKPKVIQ
Sequence of Tyrosine-protein kinase Blk (Homo sapiens) (P51451 2-505 limits assumed): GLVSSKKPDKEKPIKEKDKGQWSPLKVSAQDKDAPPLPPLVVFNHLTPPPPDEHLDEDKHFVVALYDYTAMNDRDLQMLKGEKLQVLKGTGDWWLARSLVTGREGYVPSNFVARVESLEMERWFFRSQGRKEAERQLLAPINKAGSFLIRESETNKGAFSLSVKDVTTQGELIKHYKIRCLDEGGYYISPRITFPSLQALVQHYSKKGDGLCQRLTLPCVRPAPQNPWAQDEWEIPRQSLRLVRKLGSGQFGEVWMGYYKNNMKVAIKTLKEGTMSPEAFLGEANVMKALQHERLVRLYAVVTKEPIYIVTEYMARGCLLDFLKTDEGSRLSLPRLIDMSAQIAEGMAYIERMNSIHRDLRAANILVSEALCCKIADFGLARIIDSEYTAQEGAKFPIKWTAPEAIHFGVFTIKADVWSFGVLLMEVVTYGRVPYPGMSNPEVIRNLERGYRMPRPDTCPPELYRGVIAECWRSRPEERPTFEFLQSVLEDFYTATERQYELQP

C[C@@H]1CN(c2cc(-c3nn(C)c4ccc(OC5(C)CC5)cc34)ncn2)C[C@H](C)O1 [MLi-2-NC]
inactive: [1]; [20] 63% | [2]; [20] 67% | [3]; [20] 63% | [4]; [20] 95% | [5]; [20] 88% | [6]; [20] 83% | [7]; [20] 87% | [8]; [20] 92% | [9]; [20] 100% | [10]; [20] 75% | [11]; [20] 87% | [12]; [20] 79% | [13]; [20] 93% | [14]; [20] 77% | [15]; [20] 58% | [16]; [20] 100% | [17]; [20] 100% | [18]; [20] 100% | [19]; [20] 100%

C[C@@H]1CN(c2cc(-c3n[nH]c4ccc(OC5(C)CC5)cc34)ncn2)C[C@H](C)O1 [MLi-2]
inactive: [1]; [21] 94% | [2]; [21] 77% | [3]; [21] 74% | [4]; [21] 83% | [5]; [21] 89% | [6]; [21] 98% | [7]; [21] 69% | [8]; [21] 69% | [9]; [21] 70% | [10]; [21] 96% | [11]; [21] 85% | [12]; [21] 89% | [13]; [21] 80% | [14]; [21] 100% | [15]; [21] 64% | [16]; [21] 86% | [17]; [21] 89% | [18]; [21] 100% | [19]; [21] 79%
